In US20170258756A1, “A Method for Topically Treating Actinic Keratosis on the Scalp with Ingenol 3-(3,5-diethylisoxazole-4-carboxylate)” (LEO Laboratories Limited, priority 2014, published 2017):

Assays:
[1] = test system: actinic keratosis on the scalp; assay: Part 2 open label trial, 0.037% gel once daily for three consecutive days on the scalp; assay type: in vivo, human
From the text: The outcome for Part 2 is safety and efficacy in a once daily application for three consecutive days on the scalp. The efficacy in treating of the AK will be measured as reduction in AK count in the treated area of lesions which are not considered hyperkeratotic/hypertrophic.
In parallel the efficacy in treating of the AK will be measured as reduction in AK count in the treated area of lesions which are considered hyperkeratotic/hypertrophic.
The reduction in AK count will be performed at week 4 and 8 no matter the type of lesion. Also complete clearance of AKs in the treated area which are not considered hyperkeratotic/hypertrophic at week 8 will be measured.
To qualify for part 2 of the trial, the subjects must have 5-20 clinically visible and discrete AKs within 250 cm^2 area on the balding scalp (The balding part of the scalp should be greater than 25 cm^2 and up to approximately 250 cm^2). In addition to the requirement of 5-20 clinically typical, visible and discrete AKs within the selected treatment area, subjects may also have visible and discrete hyperkeratotic/hypertrophic lesions in this area. The subjects will be treated with a dose of 0.037% as a once daily three consecutive days treatment and followed for 8 weeks.
The trial consists of an initial part, where 18 subjects will be treated on the scalp. […] As this is a safety trial, it is considered justified to conduct this clinical trial as an open-label, uncontrolled trial. An early safety and tolerability evaluation will be performed following the 3 days treatment. If safety and tolerability is found acceptable by the Early Data Review Committee, and additional 44 subjects will be enrolled in order to expand safety observations and obtain an estimate of treatment efficacy.
The patients are scheduled for 7 visits: • Visit 1: within 21 days prior to day 1 • Visit 2: day 1 (application of trial medication) • Visit 3: […] (application of trial medication) • Visit 4: day 8 (+2 day) • Visit 5: week 2 (±2 day) • Visit 6: week 4 (±4 day) • Visit 7: week 8 (±7 day)
LSRs are evaluated at all visits following visit 1. AK lesion counts are performed on Visit 2, 6 and 7.
At Baseline (Day 1) and Visit 7 (Week 8), the investigator will make a clinical (visual and tactile) assessment of the extent of photo-damage in the treatment area with respect to 1) fine wrinkling, 2) coarse wrinkling, 3) mottled pigmentation, 4) roughness, 5) sallowness, 6) skin laxity, and 7) telangiectasia. Severity for each of these characteristics will be on a 5-point scale: None (0), Mild (1), Moderate (2), Severe (3), Extreme (4).
At Visit 7 (Week 8) the Investigator will make an overall clinical (visual and tactile) assessment of the subject's photo-damage change from baseline in the treatment area (including an integrated assessment of fine wrinkling, coarse wrinkling, mottled pigmentation, roughness, sallowness, skin laxity, and telangiectasia based on the subject's appearance at the baseline visit).
At Visit 7 (Week 8), the subjects will complete a self-assessment questionnaire evaluating the change in the 1) overall appearance of the skin and 2) overall feel of the skin after treatment. The scoring will be on a 5-point scale: Much worsened, Somewhat worsened, No change, somewhat improved, much improved.
The secondary response criteria will be analysed for the full analysis set and for the per protocol analysis set. The ratio of number of AK lesions at week 8 relative to baseline, excluding lesions identified at base line as hyperkeratotic/hypertrophic lesions, will be tabulated by treatment group. Separately for each treatment group, the rate and corresponding 95% confidence interval will be estimated from a negative binomial regression on the AK count at week 8 with the log baseline value as an offset variable. The same analysis will be performed for the subgroup of lesions identified as hyperkeratotic/hypertrophic at baseline. […]

[2] = test system: actinic keratosis on the scalp; assay: Part 1 dose escalation trial, gel once daily for two consecutive days on the scalp (LSR / DLT); assay type: in vivo, human
From the text: Local skin reactions (LSRs) occurs sometimes in the treated area. Often LSRs are quantified by a scale evaluating the following types of skin reactions: erythema, flaking/scaling, crusting, swelling, vasiculation/postulation, and erosion/ulceration which are categorized into categories 0-4 depending on the severity of the reactions.
Dose Limiting toxicity (DLT) is defined as the following LSR: […]
Erosion/ulceration grade 4.
Or other clinically relevant signs or symptoms observed, which the Investigator judges to be counted as a DLT. Maximum tolerated dose (MTD) is declared as dose level at which less than 4 subjects out of experience a DLT of cohort of 12 subjects.
Part 1 was a dose escalation study conducted with a once daily application of trial medication for two consecutive days and continued until the MTD was identified.
Dose escalation proceeded if the safety and tolerability data of the subject up to day 8 was reviewed and considered satisfactory. The treatment consisted of once daily treatment for 2 consecutive days. Up to 5 different doses may be investigated in cohorts of […]. The number of subjects in each cohort depended on the number of observed DLTs. However, the MTD was always be confirmed in a cohort of 12 subjects. […] Dose escalation was stopped at the 0.075% dose level as the investigators in this study felt that the application site adverse events, although manageable, could pose a problem for some patients. […] Part 2 is a study of the efficacy of the 0.037% dose identified in part 1 in a three day regimen.
Part 1: Trial medication, ingenol 3-(3,5-diethylisoxazole-4-carboxylate) gel, will be applied to the treatment area once daily for two consecutive days until the maximum tolerated dose has been reached for each formulation. Up to five different doses of active compound in gel may be investigated in cohorts 12 subjects.
Predefined grades of Local Skin Responses (LSRs) will constitute dose limiting toxicity (DLT). The maximum tolerated dose is defined as the highest dose level at which less than 4 out of12 subjects experience a Dose limiting toxicity.
The doses will be administered in an escalating manner following review of safety and tolerability data performed by the dose escalation committee. Evaluation of the safety and tolerability data will be performed after Visit 5/day 8. Then subjects will be followed for 8 weeks after first application of investigational product.

dermal tumours = assay: in vivo studies in mice, effects on dermal tumours; conditions: compared with ingenol mebutate
From the text: The exact mechanism of action of ingenol 3-(3,5-diethylisoxazole-4-carboxylate) continues to be investigated, but it is believed that ingenol 3-(3,5-diethylisoxazole-4-carboxylate) has a dual mechanism of action inducing cell death as well as stimulation of immune response.

## CCc1noc(CC)c1C(=O)O[C@H]1C(C)=C[C@]23C(=O)[C@@H](C=C(CO)[C@@H](O)[C@]12O)[C@H]1[C@@H](C[C@H]3C)C1(C)C [ingenol 3-(3,5-diethylisoxazole-4-carboxylate)]
[1]; once daily three consecutive days, scalp, 62 patients, week 8
  reduction in AK count: 79%
[1]; once daily three consecutive days, scalp, week 8
  complete clearance: 40%
[1]; three day regimen, cosmetic outcome self-assessment, % of subjects
  improvement in appearance and feel reported by subjects: more than 90%
[1]; three day regimen, investigator assessment
  photo damage improved, share of patients: two-thirds
[1]; three day regimen, rapid decline thereafter
  time at which side-effects maximize: 4 days
[1]; three day regimen, scalp
  side-effects: considered acceptable
[2]; 0.037%, two days dosing regimen
  tolerability of selected dose with respect to LSRs and application site reaction: well tolerated
[2]; two day regimen, dose escalation up to 0.075%
  subjects meeting dose limiting toxicity (DLT) criteria: no subjects met the predefined criteria for DLT
[2]; two day regimen, stopped because of application site adverse events, manageable
  dose level at which dose escalation was stopped: 0.075%
[2]; two day treatment, compared with 0.075%
  tolerability of 0.037% and 0.05% doses: clearly better tolerated
Dermal tumours
  efficacy in eliminating dermal tumours: more efficacious than ingenol mebutate
